In patent US20090258046A1, “COMPOSITION, FORMULATIONS AND KIT FOR TREATMENT OF RESPIRATORY AND LUNG DISEASE WITH NON-GLUCOCORTICOID STEROIDS AND/OR UBIQUINONE AND A BRONCHODILATING AGENT” (priority 2001, published 2009):

Key:
[1] = tested on: HT-29 SF cells; experiment: DHEA effect on cell cycle distribution (flow cytometry, propidium iodide); type: cell-based, human
[2] = tested on: HT-29 SF cells; experiment: Reversal of DHEA effect on cell cycle by medium supplements (flow cytometry); type: cell-based, human; conditions: for prevention of DHEA-induced S phase depletion: 2 FM MVA, 15 Fg/ml CH, RN 30 FM
[3] = tested on: HT-29 SF cells; experiment: DHEA effect on cell growth (Coulter counter cell number)
Procedure: Cell cultures, HT-29 SF cells, which represent a subline of HY-29 cells (ATCC, Rockville, Md.) and are adapted for growth in completely defined serum-free PC-1 medium (Ventrex, Portland, Me.), were obtained. Stock cultures were maintained in this medium at 37° (in a humidified atmosphere containing 5% CO2).

[4] = biological target: purified G6PDH (Homo sapiens, UniProt P11413); experiment: Enzymatic assay of purified G6PDH (absorbance at 340 nm); conditions: in vitro
purified G6PDH, sequence (P11413 whole entry): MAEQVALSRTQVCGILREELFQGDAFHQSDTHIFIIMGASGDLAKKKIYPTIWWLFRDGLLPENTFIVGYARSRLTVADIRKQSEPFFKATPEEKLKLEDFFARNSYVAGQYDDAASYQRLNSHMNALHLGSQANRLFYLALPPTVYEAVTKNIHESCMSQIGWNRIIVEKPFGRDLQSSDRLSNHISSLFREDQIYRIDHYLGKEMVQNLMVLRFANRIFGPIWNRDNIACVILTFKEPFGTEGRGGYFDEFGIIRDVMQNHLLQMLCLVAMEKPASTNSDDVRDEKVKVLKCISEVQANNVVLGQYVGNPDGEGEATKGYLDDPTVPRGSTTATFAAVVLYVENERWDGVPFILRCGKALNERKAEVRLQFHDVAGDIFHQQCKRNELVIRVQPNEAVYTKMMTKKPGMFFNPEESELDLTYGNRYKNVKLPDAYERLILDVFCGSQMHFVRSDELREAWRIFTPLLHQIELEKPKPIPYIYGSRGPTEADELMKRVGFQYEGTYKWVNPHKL
Procedure: All experiments were repeated 4 times.
A second group was added different concentrations of a CoQ of long side chain (in triplicate), and a third group received a CoQ of short side chain (in triplicate), both at various doses in the μM range.
The reaction was started by addition of the enzyme, and the increase in absorbance at 340 nm was measured for 5 minutes. Each data point was conducted in triplicate, and the fill experiment was repeated 4 times.

[5] = tested on: Intracellular adenosine in various Rat Tissues; experiment: In vivo effect on tissue adenosine levels in rats (HPLC of 1,N6-ethenoadenosine); set-up: species or system Fischer 344 rats; conditions: for Intracellular adenosine, Brain / Intracellular adenosine, Heart / Intracellular adenosine, Liver: mean ± SEM
Source text: […] […] Hearts were removed from animals and flash frozen in liquid nitrogen with 10 seconds of death. Liver and lungs were removed en bloc and flash frozen with 30 seconds of death. Brain tissue was subsequently dissected.

[6] = tested on: HT-29 SF cells; experiment: Reversal of DHEA-mediated growth inhibition by medium supplements; type: cell-based, human; conditions: 25 μM DHEA, 48 hour treatment; 2 μM MVA, 80 μM SQ, 15 μg/ml CH, RN 30 μM each, DN 20 μM each
Procedure: RN plus DN, or MVA plus CH plus RN, or medium that was not supplemented. All compounds were obtained from Sigma Chemical Co. (St. Louis, Mo.) Cholesterol was solubilized in ethanol immediately before use. […] In A, the medium was supplemented with 2 μM MVA, 80 μM SQ, 15 μg/ml CH, or MVA plus CH (MVA+CH) or was not supplemented (CON). […] RN plus DN (RN+DN); or MVA plus CH plus RN (MVA+CH+RN). […] Columns represent cell growth percentage of untreated controls; bars represent SEM. Increase in cell number in untreated controls was […]. Each data point represents quadruplicate dishes from four independent experiments. Statistical analysis was performed using Student's t test κ ρ<0.01; φ ρ<, 0.001; compared to treated controls.

[7] = folinic acid 50 mg/kg intraperitoneally once daily for fourteen days
[8] = high dose methyltestosterone daily for two weeks, versus control
[9] = methyltestosterone 40 mg/kg by gavage once daily for fourteen days

SMILES: C[C@]12CC[C@H](O)CC1=CC[C@@H]1[C@@H]2CC[C@]2(C)C(=O)CC[C@@H]12 [DHEA, dehydroepiandrosterone]
- proportion of cells in S phase ([1]; 200 μM DHEA, after 24 hours, continued through the treatment): decreased
- overall effect on cell cycle ([1]; 25-200 μM DHEA, 24-72 hours): G1 block in HT-29 SF cells in a time- and dose-dependent manner
- G2M phase cells ([1]; 25 or 50 μM DHEA, after 48 hours): transient increase
- percentage of cells in G1 phase ([1]; 25 or 50 μM DHEA, after 72 hours): increased
- cell cycle distribution ([1]; 25 or 50 μM DHEA, after the initial 24 hours): unchanged
- proportion of cells in S phase ([1]; 25 or 50 μM DHEA, as time of exposure increased): progressively decreased
- cell morphology ([2]; DHEA exposure (data not shown)): rounded shape
- proportion of cells in S phase ([2]; with increasing exposure time (48 and 72 hours)): progressively reduced
- inhibition of growth ([3]; 0-200 μM DHEA, 0-72 hours): time- and dose-dependent inhibition of growth
- exposure time after which cell number was reduced compared to controls ([3]; 12.5 μM DHEA): 72 h
- exposure time after which cell number was reduced compared to controls ([3]; 25 μM DHEA): 48 h
- exposure time after which cell number was reduced compared to controls ([3]; 50 μM DHEA): 48 h
- exposure time after which cell number was reduced compared to controls ([3]; 200 μM DHEA): 24 h
- inhibition of G6PDH enzyme activity (in words) ([4]; various doses in the μM range, compared to controls): inhibited the enzyme activity in a statistically significant manner
- inhibition of the activity of purified G6PDH compared to control ([4]; concentration not given): 72%

SMILES: Nc1nc(=O)c2c([nH]1)NCC(CNc1ccc(C(=O)N[C@@H](CCC(=O)O)C(=O)O)cc1)N2C=O (mixture of isomers) [Folinic Acid, Folinic acid]
- Intracellular adenosine, Brain [5, 7]: 0.72 ± 0.09 nmols/mg protein
- Intracellular adenosine, Heart [5, 7]: 12.4 ± 2.1 nmols/mg protein
- Intracellular adenosine, Liver [5, 7]: 16.4 ± 2.4 nmols/mg protein
- effect on adenosine levels, all organs studied ([5]; folinic acid administered alone): increase
- effect of coadministration on steroid-mediated adenosine depletion ([5]; folinic acid coadministered with DHEA or methyltestosterone): completely abrogated

SMILES: C[C@]12CCC(=O)C=C1CC[C@@H]1[C@@H]2CC[C@@]2(C)[C@H]1CC[C@]2(C)O [Methyl-testosterone, methyltestosterone]
- effect on adenosine across organs ([5]; administered daily for two weeks): multi-organ depletion of adenosine
- depletion of adenosine in brain [5, 8]: 34%
- depletion of adenosine in heart [5, 8]: 22%
- Intracellular adenosine, Brain [5, 9]: 0.42 ± 0.06 nmols/mg protein
- Intracellular adenosine, Heart [5, 9]: 8.3 ± 1.0 nmols/mg protein
- Intracellular adenosine, Liver [5, 9]: 16.5 ± 0.9 nmols/mg protein
- Intracellular adenosine, Brain ([5]; methyltestosterone 120 mg/kg): 0.32 ± 0.03 nmols/mg protein
- Intracellular adenosine, Heart ([5]; methyltestosterone 120 mg/kg): 6.0 ± 0.4 nmols/mg protein
- Intracellular adenosine, Liver ([5]; methyltestosterone 120 mg/kg): 5.1 ± 0.5 nmols/mg protein

SMILES: C[C@@](O)(CCO)CC(=O)O [MVA, mevalonic acid]
- reversal of DHEA-induced growth inhibition [6]: partially overcome
- prevention of DHEA-induced S phase depletion ([2]; 48 hours): partially prevented
- prevention of DHEA-induced S phase depletion ([2]; 72 hours): not
- prevention of DHEA-induced rounded shape ([2]; supplement added to culture medium (data not shown)): prevented

SMILES: CC(C)CCC[C@@H](C)[C@H]1CC[C@H]2[C@@H]3CC=C4C[C@@H](O)CC[C@]4(C)[C@H]3CC[C@]12C [CH, cholesterol]
- reversal of DHEA-induced growth inhibition [6]: no such effect
- prevention of DHEA-induced S phase depletion ([2]; 48 hours): very little effect
- prevention of DHEA-induced S phase depletion ([2]; 72 hours): no effect

SMILES: CC(C)=CCC/C(C)=C/CC/C(C)=C/CC/C=C(\C)CC/C=C(\C)CCC=C(C)C [SQ, squalene]
- reversal of DHEA-induced growth inhibition [6]: no such effect
